Source: US11197873B2, “Azolium salts for treatment of non-muscle invasive bladder cancer” (The University of Akron, priority 2019, dated 2021)

Experiments:
Type in all cases: cell-based, human
RT112 cell line = assay: Relative survival at varying concentration and exposure time, 24 h recovery; details: 5 min exposure time
Protocol: (§1) FIG. 4 provides the relative survival of RT4 cells in part A and RT112 cells in part B that were treated with varying concentrations of III for different exposure times followed by a 24 h recovery.
Select bladder cancer cell lines were seeded at 10,000 cells/well in black-walled 96 well plates and incubated for 24 h. […] After 24 h, plates with cells were incubated at room temperature for 30 min, followed by the addition of 20 μL of CellTiter-Glo® luminescent cell viability assay reagent (Promega) and mixing. After 2 min of incubation at room temperature, luminescence for each plate was measured using IVIS. Relative survival for each treatment group was calculated using vehicle control. All treatments were performed in quadruplicate.

[1] = test system: bladder cancer cell lines; assay: CellTiter-Glo assay, growth inhibition at 1 h exposure
Protocol: (§2) Select bladder cancer cell lines were seeded at 10,000 cells/well in black-walled 96 well plates and incubated for 24 h. Cells were treated with compound in their respective media (as recommended by ATCC) at concentrations of 500 to 7.8 μM dissolved in two-fold dilution increments or vehicle for 1 h, followed by replacement of treatment media with normal growth media. After 24 h, plates with cells were incubated at room temperature for 30 min, followed by the addition of 20 μL of CellTiter-Glo® luminescent cell viability assay reagent (Promega) and mixing. After 2 min of incubation at room temperature, luminescence for each plate was measured using IVIS. Relative survival for each treatment group was calculated using vehicle control. All treatments were performed in quadruplicate.

RT4 cell line = assay: Relative survival at varying concentration and exposure time, 24 h recovery; details: 5 min exposure time
Protocol: as §1, §2

## CN1/C(=C/C=C/c2n(Cc3ccc4ccccc4c3)c(Cl)c(Cl)[n+]2Cc2ccc3ccccc3c2)Oc2ccccc21.[Cl-] [III, 4,5-dichloro-2-((1E,3Z)-3-(3-methylbenzoxazol-2(3H)-ylidene)prop-1-en-1-yl)-1,3-bis(naphthalen-2-ylmethyl)-1H-imidazolium chloride]
RT112 cell line
  concentration that inhibits cell survival: 40 µM
[1]
  GI50 compared with both triphenylphosphonium compounds: extremely lower GI50 concentrations
RT4 cell line
  concentration that inhibits cell survival: 10 µM
